Data on 8 molecules can be found in US20250326767A1, “NOVEL BENZOTHIAZOLE DERIVATIVES” (CARNA BIOSCIENCES, INC., priority 2021, published 2025).

What all share (test): Inhibition test on activity of DYRK family, mobility shift assay (MSA)
Holding throughout (type): biochemical

For one assay, the target named is T1, DYRK2 (Homo sapiens, UniProt Q92630).
T1 construct: purchased Carna Biosciences, Inc. 04-132
T1 sequence (Q92630 1-601): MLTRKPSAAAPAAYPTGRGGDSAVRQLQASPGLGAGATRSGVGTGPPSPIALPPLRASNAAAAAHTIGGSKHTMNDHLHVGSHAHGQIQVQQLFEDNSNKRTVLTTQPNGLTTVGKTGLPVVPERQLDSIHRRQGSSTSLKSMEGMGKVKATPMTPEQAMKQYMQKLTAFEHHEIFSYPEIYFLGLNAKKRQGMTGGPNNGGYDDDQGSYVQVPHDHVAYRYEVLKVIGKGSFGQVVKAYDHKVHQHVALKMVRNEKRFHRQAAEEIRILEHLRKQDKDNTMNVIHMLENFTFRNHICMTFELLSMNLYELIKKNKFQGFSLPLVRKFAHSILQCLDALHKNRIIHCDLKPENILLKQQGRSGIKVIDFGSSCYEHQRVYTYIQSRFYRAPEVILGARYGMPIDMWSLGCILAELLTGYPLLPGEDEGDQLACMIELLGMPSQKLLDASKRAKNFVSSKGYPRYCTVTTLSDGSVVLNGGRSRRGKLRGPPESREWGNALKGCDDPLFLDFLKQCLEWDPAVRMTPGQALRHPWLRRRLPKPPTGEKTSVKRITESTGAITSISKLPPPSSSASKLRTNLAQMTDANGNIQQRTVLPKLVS
The settings on record: ATP 40 μM; FITC-labeled DYRKtide peptide substrate; room temperature 1 hour; read-out: Inhibitory Activity DYRK2 (IC50 class). Here is the method:
(§1) The kinase activity was measured by mobility shift assay (MSA) method using QuickScout Screening Assist™ MSA (commercially available kit manufactured by Carna Biosciences, Inc.). The substrate of the kinase reaction used was an FITC-labeled DYRKtide peptide included in the kit. An assay buffer [20 mM HEPES, 0.01% Triton X-100™, 2 mM dithiothreitol, pH 7.5] was used to create a substrate mixture solution with a substrate (4 μM), MgCl2 (20 mM), and ATP (DYRK1A: 100 μM; DYRKIB: 200 μM; DYRK2:40 μM; and DYRK3:20 μM). In addition, kinases (DYRK1A: manufactured by Carna Biosciences, Inc., Cat. No. 04-130; DYRK1B: manufactured by Carna Biosciences, Inc., Cat. No. 04-131; DYRK2; manufactured by Carna Biosciences, Inc., Cat. No. 04-132; and DYRK3; manufactured by Carna Biosciences, Inc., Cat. No. 04-133) were diluted with the assay buffer to prepare enzyme solutions (DYRK1A: 0.2 ng/μL; DYRK1B: 0.08 ng/μL; DYRK2: 0.04 ng/μL; and DYRK3:0.25 ng/μL). The 10 mM solution of the test compound in DMSO was further diluted with DMSO to 10 levels of the concentration (0.00003 mM, 0.0001 mM, 0.0003 mM, 0.001 mM, 0.003 mM, 0.01 mM, 0.03 mM, 0.1 mM, 0.3 mM, and 1 mM), each of which was subjected to 25-fold dilution with the assay buffer to obtain a drug solution (4% DMSO solution). 5 μL of the drug solution or a control solution (4% DMSO-assay buffer), 5 μL of the substrate mixture solution, and 10 μL of the enzyme solution were mixed in the wells of a polypropylene 384-well plate and allowed to react at room temperature for 1 hour, and then the reaction was quenched by adding 60 μL of the termination buffer included in the kit. Subsequently, the quantities of the substrates(S) and the phosphorylated substrate (P) in the reaction solution were measured using LabChip EZ Reader II system (manufactured by Caliper Life Sciences) according to the protocol of the assay kit.
(§2) The heights of the peaks of the “substrate” and the “phosphorylated substrate” were expressed as S and P, respectively, and a blank containing the assay buffer instead of the enzyme solution was also measured.
(§3) The inhibition rate (%) of the test compound was calculated according to the following equation: […]
(§4) wherein, A, B, and C represent P/(P+S) of the blank well, P/(P+S) of the control solution well, and P/(P+S) of the compound-containing well, respectively.
(§5) The IC50 value was calculated via a regression analysis of the inhibition rate and the test compound concentration (logarithmic value).

The next assay deals with T2, DYRK1B (Homo sapiens, UniProt Q9Y463).
T2 construct: purchased Carna Biosciences, Inc. 04-131
T2 sequence (Q9Y463 whole entry): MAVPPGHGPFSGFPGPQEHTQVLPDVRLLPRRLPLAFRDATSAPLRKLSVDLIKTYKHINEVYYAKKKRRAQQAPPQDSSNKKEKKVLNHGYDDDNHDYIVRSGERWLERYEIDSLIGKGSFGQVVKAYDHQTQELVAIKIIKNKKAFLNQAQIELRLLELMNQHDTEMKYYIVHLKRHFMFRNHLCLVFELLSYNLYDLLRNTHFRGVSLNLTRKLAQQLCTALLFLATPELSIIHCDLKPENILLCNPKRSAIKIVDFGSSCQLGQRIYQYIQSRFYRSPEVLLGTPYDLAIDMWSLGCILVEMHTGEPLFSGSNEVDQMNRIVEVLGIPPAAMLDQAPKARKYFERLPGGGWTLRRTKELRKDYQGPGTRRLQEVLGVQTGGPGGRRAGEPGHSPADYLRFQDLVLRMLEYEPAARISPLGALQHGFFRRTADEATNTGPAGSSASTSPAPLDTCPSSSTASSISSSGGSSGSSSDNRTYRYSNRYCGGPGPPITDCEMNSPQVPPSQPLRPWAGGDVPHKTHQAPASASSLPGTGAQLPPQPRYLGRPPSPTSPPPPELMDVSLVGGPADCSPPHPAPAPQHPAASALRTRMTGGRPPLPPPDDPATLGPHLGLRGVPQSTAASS
The settings on record: ATP 200 μM; FITC-labeled DYRKtide peptide substrate; room temperature 1 hour; read-out: Inhibitory Activity DYRK1B (IC50 class). The method, then: as §1, §2, §3, §4, §5

The next assay addresses T3, DYRK3 (Homo sapiens, UniProt O43781).
T3 construct: purchased Carna Biosciences, Inc. 04-133
T3 sequence (O43781 1-588): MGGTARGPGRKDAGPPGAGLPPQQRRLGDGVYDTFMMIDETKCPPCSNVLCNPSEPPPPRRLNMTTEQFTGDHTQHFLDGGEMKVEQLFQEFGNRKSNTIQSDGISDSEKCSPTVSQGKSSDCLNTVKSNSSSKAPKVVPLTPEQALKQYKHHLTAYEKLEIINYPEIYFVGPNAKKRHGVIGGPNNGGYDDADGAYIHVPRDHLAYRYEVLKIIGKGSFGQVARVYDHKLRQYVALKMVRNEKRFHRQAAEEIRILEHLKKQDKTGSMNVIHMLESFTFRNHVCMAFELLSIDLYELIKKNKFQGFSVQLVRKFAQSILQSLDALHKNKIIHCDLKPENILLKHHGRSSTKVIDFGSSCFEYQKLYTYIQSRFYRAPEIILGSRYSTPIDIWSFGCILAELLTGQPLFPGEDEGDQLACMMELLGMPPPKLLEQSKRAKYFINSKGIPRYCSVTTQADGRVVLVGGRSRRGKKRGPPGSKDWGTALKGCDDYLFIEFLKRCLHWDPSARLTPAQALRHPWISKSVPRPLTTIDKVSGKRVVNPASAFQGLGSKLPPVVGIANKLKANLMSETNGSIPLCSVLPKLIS
As to conditions: ATP 20 μM; FITC-labeled DYRKtide peptide substrate; room temperature 1 hour; read-out: Inhibitory Activity DYRK3 (IC50 class). The method, then: as §1, §2, §3, §4, §5

For the next assay, the target named is T4, DYRK1A (Homo sapiens, UniProt Q13627).
T4 construct: purchased Carna Biosciences, Inc. 04-130
As to conditions: ATP 100 μM; FITC-labeled DYRKtide peptide substrate; room temperature 1 hour; read-out: Inhibitory Activity DYRK1A (IC50 class). The method, then: as §1, §2, §3, §4, §5

With `CC#CC1N(c2nc3c4c(ccc3s2)OCCO4)C(=O)NC12CC2` (single isomer, unassigned) [Example 7, 6-(7,8-dihydro-[1,4]dioxyno[2′,3′:5,6]benzo[1,2-d]thiazol-2-yl)-7-(prop-1-yn-1-yl)-4,6-diazaspiro[2.4]heptan-5-one], the IC50 on DYRK2 was 0.1 to 1 µM; at DYRK1B, below 0.01 µM; at DYRK3, 0.1 to 1 µM.
`CC#C[C@H]1[C@@H](C)CNC(=O)N1c1nc2c3c(ccc2s1)OCC3` (stereo in doubt) [Example 12, (5S*,6R*)-1-(7,8-dihydrobenzofuro[4,5-d]thiazol-2-yl)-5-methyl-6-(prop-1-yn-1-yl)tetrahydropyrimidin-2(1H)-one]: the figures for the IC50 on DYRK2, at DYRK1B and on DYRK3 were above 1 µM, 0.1 to 1 µM and above 1 µM, respectively.
With `CC#CC1CCNC(=O)N1c1nc2c3c(ccc2s1)OCCO3` (single isomer, unassigned) [Example 5, 1-(7,8-dihydro-[1,4]dioxyno[2′,3′:5,6]benzo[1,2-d]thiazol-2-yl)-6-(prop-1-yn-1-yl)tetrahydropyrimidin-2(1H)-one], the IC50 at DYRK2 is 0.1 to 1 µM; at DYRK1B it was below 0.01 µM; at DYRK1A it was below 0.01 µM; at DYRK3, 0.1 to 1 µM.
Take `CC#CC1C[C@H](C)NC(=O)N1c1nc2c3c(ccc2s1)OCC3` (stereo in doubt) [Example 17, (4S,6R)-1-(7,8-dihydrobenzofuro[4,5-d]thiazol-2-yl)-4-methyl-6-(prop-1-yn-1-yl)tetrahydropyrimidin-2(1H)-one]: the IC50 on DYRK2 is above 1 µM; at DYRK1B it was 0.01 to 0.1 µM; at DYRK1A, 0.01 to 0.1 µM; at DYRK3 it was above 1 µM.
Turning to `CC#C[C@@H]1C[C@@H](C)NC(=O)N1c1nc2c3c(ccc2s1)OCC3` [Example 15, (4R,6S)-1-(7,8-dihydrobenzofuro[4,5-d]thiazol-2-yl)-4-methyl-6-(prop-1-yn-1-yl)tetrahydropyrimidin-2(1H)-one], the IC50 on DYRK2 was above 1 µM; at DYRK1B, 0.01 to 0.1 µM; on DYRK1A, 0.01 to 0.1 µM; at DYRK3, above 1 µM.
Regarding `CC#CC1C[C@H](C)NC(=O)N1c1nc2c3c(ccc2s1)OCC3` (stereo in doubt) [Example 16, (4S,6S)-1-(7,8-dihydrobenzofuro[4,5-d]thiazol-2-yl)-4-methyl-6-(prop-1-yn-1-yl)tetrahydropyrimidin-2(1H)-one], the IC50 on DYRK2, on DYRK1B, on DYRK1A and on DYRK3 was above 1 µM throughout.
With `CC#C[C@H]1[C@H](C)CNC(=O)N1c1nc2c3c(ccc2s1)OCC3` (stereo in doubt) [Example 13, (5R*,6R*)-1-(7,8-dihydrobenzofuro[4,5-d]thiazol-2-yl)-5-methyl-6-(prop-1-yn-1-yl)tetrahydropyrimidin-2(1H)-one], the IC50 on DYRK2, on DYRK1B and on DYRK3 was above 1 µM throughout.
`CC#C[C@H]1C[C@@H](C)NC(=O)N1c1nc2c3c(ccc2s1)OCC3` [Example 14, (4R,6R)-1-(7,8-dihydrobenzofuro[4,5-d]thiazol-2-yl)-4-methyl-6-(prop-1-yn-1-yl)tetrahydropyrimidin-2(1H)-one]: the IC50 at DYRK2, on DYRK1B, at DYRK1A and on DYRK3 was above 1 µM each time.
